Measurements reported in patent US8524770B2, “Wool care composition” (Director General, Defence Research & Development …, priority 2009, dated 2013).

Legend:
[1] = tested on: clothes moths; settings: Abbott & Billings 1935, Journal of Economic Entomology; cited from earlier work
[2] = tested on: clothes moths; experiment: Protection of woollen articles / repellency against clothes moths; type: in vivo; settings: confirmed by the present inventors
From the text: Conventionally naphthalene or Paradichlorobenzene is known in the art to be used to protect woollen and fur-feather lined articles from insect damage during their storage. But these above compounds are ineffective against clothes moths and thus unable to provide protection to the woollen items as established by Abbott & Billings of USA in 1935 and published their work in the Journal of Economic Entomology on page 493-495 as entitled “Further work showing that Paradichlorobenzene, Naphthalene and cedar oils are ineffective as repellents against clothes moth”. The ineffectiveness of the naphthalene balls in protection of woollen articles from insect pests is also confirmed by the present inventors.

c1ccc2ccccc2c1 [naphthalene]
Effectiveness as repellent against clothes moths [1]: ineffective | Protection of woollen articles from insect pests [2]: ineffectiveness

Clc1ccc(Cl)cc1 [Paradichlorobenzene]
Effectiveness as repellent against clothes moths [1]: ineffective
